Results taken from PubChem BioAssay (NCI).
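Briefly, cells in 96-well plates were exposed to five compound concentrations for 48 h, and endpoints were estimated by linear interpolation. GI50 = concentration required for 50% inhibition of growth. TGI: concentration producing complete growth inhibition.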

Legend:
Experiment in all cases: growth of human tumour cells (NCI), 48 h
SK-OV-3 ovarian = tested on: SK-OV-3 ovarian
HL-60(TB) leukemia = tested on: HL-60(TB) leukemia
NCI-H522 lung = tested on: NCI-H522 lung
OVCAR-5 ovarian = tested on: OVCAR-5 ovarian
CAKI-1 renal = tested on: CAKI-1 renal
UO-31 renal = tested on: UO-31 renal
M14 melanoma = tested on: M14 melanoma
EKVX NSCLC = tested on: EKVX NSCLC
SF-295 CNS = tested on: SF-295 CNS
MCF7 breast = tested on: MCF7 breast

| Compound | TGI (SK-OV-3 ovarian) [µM] | TGI (HL-60(TB) leukemia) [µM] | TGI (NCI-H522 lung) [µM] | TGI (OVCAR-5 ovarian) [µM] | TGI (CAKI-1 renal) [µM] | TGI (UO-31 renal) [µM] | TGI (M14 melanoma) [µM] | TGI (EKVX NSCLC) [µM] | TGI (SF-295 CNS) [µM] | GI50 (SK-OV-3 ovarian) [µM] | GI50 (HL-60(TB) leukemia) [µM] | GI50 (NCI-H522 lung) [µM] | GI50 (OVCAR-5 ovarian) [µM] | GI50 (CAKI-1 renal) [µM] | GI50 (UO-31 renal) [µM] | GI50 (M14 melanoma) [µM] | GI50 (SF-295 CNS) [µM] | GI50 (MCF7 breast) [µM] | TGI (MCF7 breast) [µM] |
| --- | --- | --- | --- | --- | --- | --- | --- | --- | --- | --- | --- | --- | --- | --- | --- | --- | --- | --- | --- |
| COC(=O)/C(=C1\OC(=O)C(c2ccc(Cl)cc2)=C1O)c1ccc(Cl)cc1 | 84.6 | 32.9 | 50.4 | 79.5 | 57.9 | 68.9 | 97.5 | 72.5 | 43 |  |  |  |  |  |  |  |  |  |  |
| O/N=C1/C(=C/c2ccc(Br)cc2)CCCC1C(NO)c1ccc(Br)cc1 (stereo not drawn) | 44.8 | > 100 | 32.9 | 24.6 |  | 31.3 | 29.9 |  | 30.4 |  |  |  |  |  |  |  |  |  |  |
| O=Cc1cc2sc(C=O)cc2s1 | > 100 | > 100 | > 100 | > 100 | > 100 | > 100 | > 100 | > 100 | > 100 |  |  |  |  |  |  |  |  |  |  |
| CC1O[C@@H]2CCCCC(=O)[C@]2(C)[C@H]1C (stereo partly drawn) | > 100 | > 100 |  | > 100 | > 100 | > 100 | > 100 | > 100 | > 100 |  |  |  |  |  |  |  |  |  |  |
| Cc1cc(NCCCCCCCCNc2cc(C)nc3cc(N(C)C)ccc23)c2ccc(N(C)C)cc2n1 |  | 6.11 | 12.9 |  | 72.1 | > 100 | 21.4 | 28.5 | 30.2 |  |  |  |  |  |  |  |  |  |  |
| Cc1ccccc1C1SCc2nc3ccccc3n21 (stereo not drawn) | > 100 | > 100 | > 100 | > 100 | > 100 | > 100 |  | > 100 | > 100 |  |  |  |  |  |  |  |  |  |  |
| O=C(Nc1c(Cl)cccc1Cl)Oc1cccc2cccnc12 | 39.4 | 20.6 | 20.3 | > 100 | 24.4 | 51.8 | 20.2 |  | 69 | 4.62 | 3.75 | 3.71 | 5.01 | 3.19 | 2.74 | 4.03 | 6.68 | 2.99 | > 100 |
| C/C(COc1ccccc1)=N\NC(N)=S | > 100 | > 100 |  | > 100 | > 100 | > 100 | > 100 | > 100 | > 100 |  |  |  |  |  |  |  |  |  |  |
| CN1C(=O)CC(CC(=O)C2CCCCC2=O)CC1=O (stereo not drawn) | > 100 | > 100 | > 100 | > 100 | > 100 | > 100 | > 100 | > 100 | > 100 |  |  |  |  |  |  |  |  |  |  |
| NC1=NN(c2ccccc2)C(=O)C1/C(=N\NC(=O)c1cc2ccccc2cc1O)C(=O)Nc1ccc(Cl)c(Cl)c1 (stereo not drawn) |  | 39.8 | 37.2 | > 100 | > 100 | > 100 | 72.5 | 63.6 | > 100 |  |  |  |  |  |  |  |  |  |  |
| Clc1cc2ns[s+]c2cc1Cl | > 100 | > 87.2 | > 80.5 | > 100 | > 100 | > 91.7 | > 100 | > 100 | > 100 |  |  |  |  |  |  |  |  |  |  |
| CC1=NN(c2ccccc2)C(=O)C1N=Nc1ccc(Br)cc1C (stereo not drawn) | > 100 | > 100 |  | > 100 | > 100 |  | > 100 | > 100 | > 100 |  |  |  |  |  |  |  |  |  |  |
| Cc1c2cc[n+](C)cc2c(C)c2c1[nH]c1ccc(OC(C)(C)C)cc12 | > 100 | > 100 | > 100 | > 100 | > 100 | > 100 | > 100 |  | > 100 |  |  |  |  |  |  |  |  |  |  |
| O=C(NNC(=O)/C(=C/c1cccc([N+](=O)[O-])c1)NC(=O)c1ccccc1)Nc1ccc(Cl)cc1 | 32.1 | 30.3 | 25.7 | 32.4 | 40.2 | 27.3 | 26.9 | 44 | 34.3 |  |  |  |  |  |  |  |  |  |  |
| O=C(COc1ccc(Cl)cc1Cl)NNc1ccc([N+](=O)[O-])cc1 | 55 | > 100 |  | > 100 | > 100 | > 100 | > 100 |  | 40.1 | 24 | > 100 |  | > 100 | > 100 | > 100 | > 100 | 19.7 | > 100 | > 100 |
| Nc1cc2c3ccccc3ccc2c2ccccc12 | > 100 | > 100 | > 100 | > 100 | > 100 | > 100 | > 100 |  | > 100 | > 100 | > 68.6 | > 100 | > 100 | > 100 | > 100 | > 100 | > 100 | 20.2 | > 100 |
